Experimental findings from ChEMBL document CHEMBL1201862, “PubChem BioAssay data set” (2004) are described below.

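Five concentrations, 48 hours, 96-well plates. GI50: concentration for 50% inhibition of growth.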 Calls of active or inactive are those of the source. Cut-off read from the data, not from the text of the source: active = GI50 up to about 1.1 µM and inactive = higher.

What all share (test): DTP human tumour cell line panel, 48 h
Assay [1] concerns EKVX.
Assay [2] deals with SNB-75.
Assay [3] relates to RXF 393.
Assay [4] relates to HCT-116.
Assay [5] concerns K562.
The subject of assay [6] is COLO 205.
The test system of assay [7] is SK-MEL-28.
In assay [8] the test system is NCI-H522.
The test system of assay [9] is UACC-62.
Assay [10] has as its system SK-MEL-2.
The subject of assay [11] is SK-OV-3.
Assay [12] relates to TK-10.
The subject of assay [13] is SW-620.
For assay [14], the system named is NCI-H23.
For assay [15], the system named is NCI-H460.
Assay [16] has as its system HL-60.

By GI50 is commonly meant the concentration at which growth is held to half of that of the control. As to `O=C1N(c2ccccc2)C2(O)C(=O)c3ccccc3C2(O)N1c1ccccc1` (configuration not stated), the GI50 in assay [1], in assay [2], in [3], in [4], in assay [5] and in assay [6] was > 100 µM (inactive) in each case. Further, the GI50 in assay [7], in [8], in assay [9], in [10], in assay [11] and in assay [12] was > 100 µM (inactive) in each case. Besides, the GI50 in assay [13], in assay [14] and in assay [15] was > 100 µM (inactive) each time.
For `C/C(=N\NC(=S)N(C)C)c1ncc[nH]1`, the GI50 in assay [1] is 4.51 µM (inactive); in assay [2], 7.57 µM (inactive); in assay [3], 6 µM (inactive); in [4] it was 3.56 µM (inactive); in [5], 2.59 µM (inactive); in [16] it was 2.63 µM (inactive). In addition, the GI50 is 7.48 µM (inactive) in assay [7]; 2.62 µM (inactive) in [8]; 2.51 µM (inactive) in [9]; 3.69 µM (inactive) in [10]; 3.87 µM (inactive) in assay [11]; 13.3 µM (inactive) in assay [12]. The GI50 in [13] is 4.59 µM (inactive); in [14], 2.1 µM (inactive); in [15], 3.24 µM (inactive).
With `CCC1CC2C(=O)N(c3ccccc3)C(=O)C2c2[nH]c3ccccc3c21` (configuration not stated), the GI50 in assay [1] was 23.2 µM (inactive); in [2], 3.08 µM (inactive); in assay [3], 21.5 µM (inactive); in [5], 25.4 µM (inactive); in assay [16], 21.6 µM (inactive); in [6], 22 µM (inactive). Further, the GI50 in assay [7] was 38.6 µM (inactive); in assay [9], 19.5 µM (inactive); in assay [11], 13.6 µM (inactive); in assay [12], 31.9 µM (inactive); in [13] it was 46.1 µM (inactive); in assay [14], 71.8 µM (inactive). Besides, the GI50 in assay [15] was 15.8 µM (inactive).
As for `CCc1ccc(Cc2ccc(CC)c(NC(=O)C(=O)C3NC(=S)NC3=O)c2CC)c(CC)c1NC(=O)C(=O)C1NC(=S)NC1=O` (configuration not stated), the GI50 in assay [1] was > 100 µM (inactive); in [2], 35.2 µM (inactive); in assay [3], > 100 µM (inactive); in [4], > 100 µM (inactive); in assay [5], > 100 µM (inactive); in [16], > 100 µM (inactive). In addition, the GI50 in assay [6], in [7], in [8], in [9], in [10] and in assay [11] was > 100 µM (inactive) throughout. The GI50 in assay [12], in assay [13], in assay [14] and in assay [15] was > 100 µM (inactive) in each case.
In the case of `Nc1ccccc1SC(/C=C/NNC1=NN=C(c2ccccc2)C(c2ccccc2)N1)c1ccccc1` (configuration not stated), the GI50 is 15.4 µM (inactive) in [1]; 4.72 µM (inactive) in [2]; 14 µM (inactive) in assay [3]; 9.25 µM (inactive) in assay [5]; 3.32 µM (inactive) in assay [16]; 15.6 µM (inactive) in [6]. Further, the GI50 in assay [7] is 13.7 µM (inactive); in [8], 3.85 µM (inactive); in [9], 10.6 µM (inactive); in [10] it was 17.7 µM (inactive); in assay [11], 29.6 µM (inactive); in [12], 19 µM (inactive). The GI50 was 11.7 µM (inactive) in assay [13], 5.85 µM (inactive) in assay [14] and 18.5 µM (inactive) in assay [15].
Consider `CC(C)C(Sc1nc(-c2ccccc2)c(-c2ccccc2)[nH]1)C(=O)NNC(=S)Nc1ccccc1` (configuration not stated), for which the GI50 in assay [1] was 23.8 µM (inactive); in assay [2], 19.5 µM (inactive); in assay [4], 22.9 µM (inactive); in assay [16] it was 20.4 µM (inactive); in assay [6], 18.5 µM (inactive); in [7] it was 22.7 µM (inactive). In addition, the GI50 was 8.67 µM (inactive) in [8]; 0.857 µM (active) in assay [9]; 19.2 µM (inactive) in [10]; 21.5 µM (inactive) in [11]; 29.3 µM (inactive) in [12]; 15.3 µM (inactive) in assay [13]. Also, the GI50 in assay [14] is 14.8 µM (inactive); in [15] it was 17.1 µM (inactive).
On to `CCCc1c[nH]c(-c2ccc(-c3cc(CCC)c(C=O)[nH]3)s2)c1`, for which the GI50 in assay [2] is 19.8 µM (inactive); in [3], 21.7 µM (inactive); in assay [4] it was 18 µM (inactive); in assay [5], 12.4 µM (inactive); in [16], 21.2 µM (inactive); in assay [7], 13.6 µM (inactive). Also, the GI50 in assay [8] is 16 µM (inactive); in assay [9], 16.9 µM (inactive); in [10], 15 µM (inactive); in assay [11], 18.5 µM (inactive); in assay [12], 15.3 µM (inactive); in assay [13], 17.4 µM (inactive). Further, the values for the GI50 in assay [14] and in assay [15] were 26.5 µM (inactive) and 4.55 µM (inactive), respectively.
With `CC(=O)CC(=O)Nc1ccccc1C(F)(F)F`, the GI50 in [1], in assay [2], in [3], in assay [4], in [5] and in assay [16] was > 100 µM (inactive) each time. The GI50 in assay [6], in [7], in assay [8], in assay [9], in assay [10] and in assay [11] was > 100 µM (inactive) in each case. The GI50 in assay [12], in [13], in assay [14] and in [15] was > 100 µM (inactive) each time.
As for `O=C1c2ccccc2S[C@@H](O)[C@@H]2CCCN12`, the GI50 in assay [1], in [3], in assay [4], in assay [5], in assay [16] and in assay [6] was > 100 µM (inactive) in each case. Further, the GI50 was > 100 µM (inactive) in assay [7]; > 100 µM (inactive) in [8]; 47.9 µM (inactive) in assay [9]; > 100 µM (inactive) in assay [10]; 35.2 µM (inactive) in assay [11]; > 100 µM (inactive) in assay [12]. The GI50 in assay [13], in [14] and in [15] was > 100 µM (inactive) each time.
Consider `Cc1cc(NS(=O)(=O)c2ccc(NC(=O)c3cccc4c(Nc5ccc(S(=O)(=O)N=C(N)N)cc5)c5ccccc5nc34)cc2)no1`, for which the GI50 in assay [1], in assay [2], in assay [3], in [4], in [5] and in [16] was > 100 µM (inactive) throughout. The GI50 in [6], in assay [7], in assay [8], in assay [9], in assay [11] and in assay [12] was > 100 µM (inactive) each time. Further, the GI50 in assay [13], in [14] and in assay [15] was > 100 µM (inactive) in each case.
Take `CC1(C)CCC[C@@]2(C)C1C[C@H](O)[C@@]1(C)O[C@@](C)([C@H](O)CO)CCC21` (some centres not stated): the GI50 was > 100 µM (inactive) in assay [1]; 20.1 µM (inactive) in [2]; 33 µM (inactive) in assay [4]; 26.9 µM (inactive) in assay [5]; 24.9 µM (inactive) in [16]; 25.3 µM (inactive) in [6]. The GI50 is 34.6 µM (inactive) in assay [7]; 25.9 µM (inactive) in [8]; 28.6 µM (inactive) in assay [9]; 20.7 µM (inactive) in [10]; 25.1 µM (inactive) in assay [11]; 22.9 µM (inactive) in assay [12]. The figures for the GI50 in [13], in [14] and in assay [15] were 47 µM (inactive), 33.7 µM (inactive) and 40.9 µM (inactive), respectively.
Take `Cc1cc(C)cc(-n2c3nc(=O)n(C)c(=O)c-3nc3ccccc32)c1`: the GI50 in assay [1] was 17.7 µM (inactive); in assay [2], 34.9 µM (inactive); in assay [3], > 100 µM (inactive); in [4], 23.9 µM (inactive); in [5], 22.1 µM (inactive); in assay [6] it was 7.29 µM (inactive). Moreover, the GI50 in assay [8] was 17.5 µM (inactive); in assay [9], 16.7 µM (inactive); in assay [10], 22.9 µM (inactive); in [11] it was > 100 µM (inactive); in [12], 42.3 µM (inactive); in assay [13], 17 µM (inactive). In addition, the results for the GI50 in [14] and in [15] were 15.7 µM (inactive) and 23.9 µM (inactive), respectively.
For the compound `CCn1cc(C(=O)O)c(=O)c2cc(F)c(N3CCNCC3)nc21` [ENOXACIN], the GI50 is > 100 µM (inactive) in assay [1]; > 100 µM (inactive) in [2]; 65.6 µM (inactive) in assay [4]; 63.5 µM (inactive) in [5]; > 100 µM (inactive) in assay [16]; > 100 µM (inactive) in assay [6]. Further, the GI50 in [7] was > 100 µM (inactive); in [8], 24.4 µM (inactive); in assay [9], > 100 µM (inactive); in assay [10], > 100 µM (inactive); in [11], > 100 µM (inactive); in assay [12] it was > 100 µM (inactive). For the same compound, the GI50 is > 100 µM (inactive) in assay [13], 31.1 µM (inactive) in assay [14] and > 100 µM (inactive) in assay [15].
